Molecules are shown by their SMILES. pIC50: −log10 of the molar value.

The target of the assay is T1, SARM1 (50-724) (Homo sapiens, UniProt Q6SZW1).
T1 construct: Purified SARM1 (50-724) with a final concentration of 2 nM was pre-incubated with a test compound
T1 sequence (Q6SZW1 50-724): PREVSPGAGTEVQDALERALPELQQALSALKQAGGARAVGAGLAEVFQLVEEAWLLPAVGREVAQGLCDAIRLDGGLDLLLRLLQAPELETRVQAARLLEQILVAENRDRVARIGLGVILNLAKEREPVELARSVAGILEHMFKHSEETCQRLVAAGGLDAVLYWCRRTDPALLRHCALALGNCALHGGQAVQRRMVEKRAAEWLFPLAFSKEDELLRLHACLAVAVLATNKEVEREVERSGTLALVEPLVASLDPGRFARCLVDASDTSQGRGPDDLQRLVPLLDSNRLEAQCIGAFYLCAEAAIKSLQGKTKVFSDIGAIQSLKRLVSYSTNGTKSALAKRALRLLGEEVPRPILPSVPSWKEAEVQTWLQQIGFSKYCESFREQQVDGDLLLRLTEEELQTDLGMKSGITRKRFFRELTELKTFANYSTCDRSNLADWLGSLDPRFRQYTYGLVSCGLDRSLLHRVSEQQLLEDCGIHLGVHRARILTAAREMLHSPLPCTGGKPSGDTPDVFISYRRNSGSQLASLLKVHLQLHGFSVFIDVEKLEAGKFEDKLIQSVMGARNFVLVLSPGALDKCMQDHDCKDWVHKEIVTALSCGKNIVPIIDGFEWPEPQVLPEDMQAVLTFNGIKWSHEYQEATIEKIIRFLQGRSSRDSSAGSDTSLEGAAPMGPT
Briefly: SARM1 (50-724) enzymatic assay (LC-MS/MS). The settings on record: Purified SARM1 (50-724) 2 nM, NMN as activator, NAD+ as substrate, 1 h at room temperature, read-out: IC50 (SARM1 inhibitory activity). The class given is biochemical. The method, boiled down: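 Reaction buffer was Dulbecco's PBS. Compound and 2 nM human SARM1 (50-724) were pre-incubated 15 min at room temperature, then […] NAD^+ and 200 µM NMN activator were added for 1 h at room temperature. Acetonitrile (70%) stop, LC-MS/MS read-out, IC50 values.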
Regarding `OCCOc1ccc(OC(F)(F)F)c(-n2cnnc2-c2nc3cc(C(F)(F)F)ccc3[nH]2)c1` [Compound 230, 2-(4-(trifluoromethoxy)-3-(3-(5-(trifluoromethyl)-1H-benzo[d]imidazol-2-yl)-4H-1,2,4-triazol-4-yl)phenoxy)ethan-1-ol], the pIC50 (in general, −log10 of the IC50, conventionally taken in molar units) was at least 7.00.
For the compound `CCN(C)C(=O)c1ccc2[nH]c(-c3nncn3-c3ccc(F)c(F)c3Cl)nc2c1` [Compound 172, 2-(4-(2-chloro-3,4-difluorophenyl)-4H-1,2,4-triazol-3-yl)-N-ethyl-N-methyl-1H-benzo[d]imidazole-5-carboxamide], the pIC50 is below 6.00.
The value for `CN1CCN(c2ccc(Cl)c(-n3cnnc3-c3nc4cc(C(F)(F)F)ccc4[nH]3)n2)CC1=O` [Compound 208, 4-(5-chloro-6-(3-(5-(trifluoromethyl)-1H-benzo[d]imidazol-2-yl)-4H-1,2,4-triazol-4-yl)pyridin-2-yl)-1-methylpiperazin-2-one] was at least 7.00; that for `CC(C#N)c1ccc2[nH]c(-c3nncn3-c3ccc(F)c(F)c3Cl)nc2c1` (centres unmarked) [Compound 152, 2-(2-(4-(2-chloro-3,4-difluorophenyl)-4H-1,2,4-triazol-3-yl)-1H-benzo[d]imidazol-5-yl)propanenitrile] was at least 7.00.
For the compound `COC(C)(C)c1ccc2[nH]c(-c3nncn3-c3cccc(Cl)c3Cl)nc2c1` [Example 110], the pIC50 was at least 7.00.
On to `Cn1cc(-c2cccc(Cl)c2Cl)c(-c2nc3cc(Cl)c(Cl)cc3[nH]2)cc1=O` [Compound 188, 4-(5,6-dichloro-1H-benzo[d]imidazol-2-yl)-5-(2,3-dichlorophenyl)-1-methylpyridin-2(1H)-one], for which the pIC50 is 6.30 to 7.00.
Then `FC(F)(F)Oc1ccc(OC2CC2)cc1-n1cnnc1-c1nc2cc(C(F)(F)F)ccc2[nH]1` [Compound 275, 2-(4-(5-cyclopropoxy-2-(trifluoromethoxy)phenyl)-4H-1,2,4-triazol-3-yl)-5-(trifluoromethyl)-1H-benzo[d]imidazole], with at least 7.00; and `OCCOc1ccc(OC(F)(F)F)c(-n2cnnc2-c2nc3cc(C(F)(F)F)ccc3[nH]2)n1` [Compound 250], with at least 7.00; and `Fc1cc(OC(F)F)cc2nc(-c3nncn3-c3cnccc3C(F)(F)F)[nH]c12` [Compound 293, 5-(difluoromethoxy)-7-fluoro-2-(4-(4-(trifluoromethyl)pyridin-3-yl)-4H-1,2,4-triazol-3-yl)-1H-benzo[d]imidazole], with at least 7.00.
For the compound `Fc1cc(C(F)F)cc2nc(-c3nncn3-c3cnccc3C(F)(F)F)[nH]c12` [Compound 467, 6-(difluoromethyl)-4-fluoro-2-(4-(4-(trifluoromethyl)pyridin-3-yl)-4H-1,2,4-triazol-3-yl)-1H-benzo[d]imidazole], the pIC50 was at least 7.00.
With `[2H]c1nnc(-c2nc3cc(C4([2H])CC4)cc(F)c3[nH]2)n1-c1cnccc1C(F)(F)F` [Compound 359, 5-(cyclopropyl-1-d)-7-fluoro-2-(4-(4-(trifluoromethyl)pyridin-3-yl)-4H-1,2,4-triazol-3-yl-5-d)-1H-benzo[d]imidazole], the pIC50 was at least 7.00.
For the compound `Cc1c(Cl)ccnc1-n1cnnc1-c1nc2cc(C(F)(F)F)ccc2[nH]1` [Example 67], the pIC50 was at least 7.00.
Take `O=C1CCCN1Cc1nnc(-c2nc3cc(C(F)(F)F)ccc3[nH]2)n1-c1cccc(F)c1Cl` [Compound 384, 1-((4-(2-chloro-3-fluorophenyl)-5-(5-(trifluoromethyl)-1H-benzo[d]imidazol-2-yl)-4H-1,2,4-triazol-3-yl)methyl)pyrrolidin-2-one]: the pIC50 is 6.00 to 6.30.
In the case of `CC(C)(O)c1cc(F)c2[nH]c(-c3nnccc3-c3cnccc3C(F)(F)F)nc2c1` [Compound 418, 2-(4-fluoro-2-(4-(4-(trifluoromethyl)pyridin-3-yl)pyridazin-3-yl)-1H-benzo[d]imidazol-6-yl)propan-2-ol], the pIC50 is at least 7.00.
Turning to `Fc1cc(C(F)(F)F)cc2nc(-c3nncnc3-c3cnccc3C(F)(F)F)[nH]c12` [Compound 336, 7-fluoro-5-(trifluoromethyl)-2-(5-(4-(trifluoromethyl)pyridin-3-yl)-1,2,4-triazin-6-yl)-1H-benzo[d]imidazole], the pIC50 is at least 7.00.
With `CS(=O)(=O)Cc1nnc(-c2nc3cc(C(F)(F)F)cc(F)c3[nH]2)n1-c1cccc(Cl)c1Cl` (single isomer, unassigned) [Compound 186], the pIC50 was 6.30 to 7.00.
For `Cc1ccc2[nH]c(-c3ccc(C#N)n3C3CCCC3)nc2c1` [Compound 19, 1-cyclopentyl-5-(5-methyl-1H-1,3-benzodiazol-2-yl)pyrrole-2-carbonitrile], the pIC50 is 6.30 to 7.00.
Turning to `OC1CCN(c2cc(F)c3[nH]c(-c4nncn4-c4cnccc4C(F)(F)F)nc3c2)C1` (centres unmarked) [Compound 447, 1-(4-fluoro-2-(4-(4-(trifluoromethyl)pyridin-3-yl)-4H-1,2,4-triazol-3-yl)-1H-benzo[d]imidazol-6-yl)pyrrolidin-3-ol], the pIC50 was 6.00 to 6.30.
As to `FC(F)(F)c1ccc2[nH]c(-c3nocc3-c3cccc(Cl)c3Cl)nc2c1` [Compound 322, 4-(2,3-dichlorophenyl)-3-(5-(trifluoromethyl)-1H-benzo[d]imidazol-2-yl)isoxazole], the pIC50 is 6.30 to 7.00.
The value for `CN(c1cc(F)c2[nH]c(-c3nncn3-c3cnccc3C(F)(F)F)nc2c1)c1nccs1` [Compound 417, N-(7-fluoro-2-(4-(4-(trifluoromethyl)pyridin-3-yl)-4H-1,2,4-triazol-3-yl)-1H-benzo[d]imidazol-5-yl)-N-methylthiazol-2-amine] was at least 7.00.
In the case of `CP(C)(=O)c1cc(F)c2[nH]c(-c3nncn3-c3cnccc3C(F)(F)F)nc2c1` [Compound 392, 5-dimethylphosphoryl-7-fluoro-2-[4-[4-(trifluoromethyl)-3-pyridyl]-1,2,4-triazol-3-yl]-1H-benzimidazole], the pIC50 is 6.30 to 7.00.
As for `CON(C)Cc1nnc(-c2nc3cc(C(F)(F)F)ccc3[nH]2)n1-c1cccc(F)c1Cl` [Compound 382, N-((4-(2-chloro-3-fluorophenyl)-5-(5-(trifluoromethyl)-1H-benzo[d]imidazol-2-yl)-4H-1,2,4-triazol-3-yl)methyl)-N,O-dimethylhydroxylamine], the pIC50 is at least 7.00.
Then `N#CCc1cccc2[nH]c(-c3nncn3-c3cnccc3C(F)(F)F)nc12` [Compound 437, 2-(2-(4-(4-(trifluoromethyl)pyridin-3-yl)-4H-1,2,4-triazol-3-yl)-1H-benzo[d]imidazol-4-yl)acetonitrile], with below 6.00; and `O=C(O)C1(c2ccc3[nH]c(-c4nncn4-c4cccc(Cl)c4Cl)nc3c2)CCC1` [Example 113], with at least 7.00; and `N#Cc1c(-n2c(-c3cccc(Cl)c3Cl)n[nH]c2=O)[nH]c2ccc(C(F)(F)F)cc12` [Compound 41, 2-(3-(2,3-dichlorophenyl)-5-oxo-1,5-dihydro-4H-1,2,4-triazol-4-yl)-5-(trifluoromethyl)-1H-indole-3-carbonitrile], with below 6.00.
`FC(F)(F)c1ccc2[nH]c(-c3nncn3-c3cccc(Cl)c3Br)nc2c1` [Example 119]: the pIC50 is at least 7.00.
As to `OCCOc1cc(-n2cnnc2-c2cc3cc(C(F)(F)F)cc(F)c3[nH]2)c(OC(F)(F)F)cn1` [Compound 411, 2-((4-(3-(7-fluoro-5-(trifluoromethyl)-1H-indol-2-yl)-4H-1,2,4-triazol-4-yl)-5-(trifluoromethoxy)pyridin-2-yl)oxy)ethanol], the pIC50 was at least 7.00.
The value for `FC(F)(F)c1cnc2[nH]c(-c3nncn3-c3cnccc3C(F)(F)F)cc2n1` [Compound 356, 2-(trifluoromethyl)-6-(4-(4-(trifluoromethyl)pyridin-3-yl)-4H-1,2,4-triazol-3-yl)-5H-pyrrolo[2,3-b]pyrazine] was at least 7.00.
Turning to `FC(F)(F)c1ccc2[nH]c(-c3nncn3-c3cnccc3C(F)(F)F)c(-c3ccncc3)c2c1` [Compound 386, 3-(4-pyridyl)-5-(trifluoromethyl)-2-[4-[4-(trifluoromethyl)-3-pyridyl]-1,2,4-triazol-3-yl]-1H-indole], the pIC50 was at least 7.00.
`CC(c1ccncc1)c1cc(F)c2[nH]c(-c3nncn3-c3cnccc3C(F)(F)F)nc2c1` (centres unmarked) [Compound 445, 7-fluoro-5-(1-(pyridin-4-yl)ethyl)-2-(4-(4-(trifluoromethyl)pyridin-3-yl)-4H-1,2,4-triazol-3-yl)-1H-benzo[d]imidazole]: the pIC50 is at least 7.00.
In the case of `FC(F)(F)c1ccc2[nH]c(-c3nncnc3-c3cccc(Cl)c3Cl)nc2c1` [Compound 307, 2-(5-(2,3-dichlorophenyl)-1,2,4-triazin-6-yl)-5-(trifluoromethyl)-1H-benzo[d]imidazole], the pIC50 was at least 7.00.
On to `Cn1ncc(-c2cccc(Cl)c2Cl)c1-c1nc2cc(C(F)(F)F)ccc2[nH]1` [Example 39], for which the pIC50 is below 6.00.

Source of the values: patent US20260258064A1 (SIRONAX LTD., priority 2023, published 2026).
